Test results taken from paper PMC6576746, “Rational discovery of dual-indication multi-target PDE/Kinase inhibitor for precision anti-cancer therapy using structural systems pharmacology” (PLoS Computational Biology, 2019).

Tests used:
Test in all cases: biochemical
Parameters in all cases: DiscoverX KinomeScan competition binding assay across human kinases; per cent of control at 10 and 100 uM
BRAF = BRAF (Homo sapiens, UniProt P15056); conditions: competition binding, % of control; read-out: Percent Control (100 uM Levosimendan)
Method in brief: (§1)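 KinomeScan competition binding was run across a human kinase panel at 10 μM and 100 μM levosimendan. Results are %control = (test − positive control)/(negative control − positive control) × 100.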

DRAK1 = target: T1, DRAK1 (Homo sapiens, UniProt Q9UEE5); conditions: competition binding, % of control
T1 construct: gene STK17A
T1 sequence (Q9UEE5 whole entry): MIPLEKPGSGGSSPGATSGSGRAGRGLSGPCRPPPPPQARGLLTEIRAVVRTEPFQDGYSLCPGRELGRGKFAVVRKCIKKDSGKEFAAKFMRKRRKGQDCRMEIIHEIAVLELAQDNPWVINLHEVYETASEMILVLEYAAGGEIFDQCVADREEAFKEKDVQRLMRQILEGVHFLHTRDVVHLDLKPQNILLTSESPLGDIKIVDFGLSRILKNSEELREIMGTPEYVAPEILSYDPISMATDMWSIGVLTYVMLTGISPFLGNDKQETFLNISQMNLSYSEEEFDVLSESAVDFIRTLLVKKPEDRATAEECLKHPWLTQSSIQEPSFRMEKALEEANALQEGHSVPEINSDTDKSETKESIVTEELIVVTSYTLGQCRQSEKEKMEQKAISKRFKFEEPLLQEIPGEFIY
Method in brief: as §1

EPHB1 = EPHB1 (Homo sapiens, UniProt P54762); conditions: competition binding, % of control; read-out: Percent Control (100 uM Levosimendan)
Method in brief: as §1

ERN1 = ERN1 (Homo sapiens, UniProt O75460); conditions: competition binding, % of control; read-out: Percent Control (100 uM Levosimendan)
Method in brief: as §1

IKK-epsilon = target: T2, IKK-epsilon (Homo sapiens, UniProt Q14164); conditions: competition binding, % of control; read-out: Percent Control (100 uM Levosimendan)
T2 construct: gene IKBKE
Method in brief: as §1

LATS2 = LATS2 (Homo sapiens, UniProt Q9NRM7); conditions: competition binding, % of control; read-out: Percent Control (100 uM Levosimendan)
Method in brief: as §1

MRCKA = target: T3, MRCKA (Homo sapiens, UniProt Q5VT25); conditions: competition binding, % of control; read-out: Percent Control (100 uM Levosimendan)
T3 construct: gene CDC42BPA
Method in brief: as §1

NEK4 = NEK4 (Homo sapiens, UniProt P51957); conditions: competition binding, % of control; read-out: Percent Control (100 uM Levosimendan)
Method in brief: as §1

NEK7 = NEK7 (Homo sapiens, UniProt Q8TDX7); conditions: competition binding, % of control; read-out: Percent Control (100 uM Levosimendan)
Method in brief: as §1

PIM1 = PIM1 (Homo sapiens, UniProt P11309); conditions: competition binding, % of control; read-out: Percent Control (100 uM Levosimendan)
Method in brief: as §1

PIP5K2B = target: T4, PIP5K2B (Homo sapiens, UniProt P78356); conditions: competition binding, % of control
T4 construct: gene PIP4K2B
T4 sequence (P78356 whole entry): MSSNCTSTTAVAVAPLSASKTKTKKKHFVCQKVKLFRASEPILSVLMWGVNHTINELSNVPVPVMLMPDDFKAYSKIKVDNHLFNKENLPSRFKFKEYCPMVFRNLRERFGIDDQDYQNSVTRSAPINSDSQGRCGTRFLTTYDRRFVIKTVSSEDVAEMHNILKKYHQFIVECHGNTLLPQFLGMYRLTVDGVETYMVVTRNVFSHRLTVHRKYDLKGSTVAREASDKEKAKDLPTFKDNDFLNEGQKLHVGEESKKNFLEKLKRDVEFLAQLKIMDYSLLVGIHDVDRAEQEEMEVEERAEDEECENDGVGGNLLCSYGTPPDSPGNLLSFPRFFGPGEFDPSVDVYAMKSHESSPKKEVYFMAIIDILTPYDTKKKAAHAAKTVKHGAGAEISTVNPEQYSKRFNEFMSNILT
Method in brief: as §1

PKN1 = PKN1 (Homo sapiens, UniProt Q16512); conditions: competition binding, % of control; read-out: Percent Control (100 uM Levosimendan)
Chain of PKN1 (Q16512 whole entry): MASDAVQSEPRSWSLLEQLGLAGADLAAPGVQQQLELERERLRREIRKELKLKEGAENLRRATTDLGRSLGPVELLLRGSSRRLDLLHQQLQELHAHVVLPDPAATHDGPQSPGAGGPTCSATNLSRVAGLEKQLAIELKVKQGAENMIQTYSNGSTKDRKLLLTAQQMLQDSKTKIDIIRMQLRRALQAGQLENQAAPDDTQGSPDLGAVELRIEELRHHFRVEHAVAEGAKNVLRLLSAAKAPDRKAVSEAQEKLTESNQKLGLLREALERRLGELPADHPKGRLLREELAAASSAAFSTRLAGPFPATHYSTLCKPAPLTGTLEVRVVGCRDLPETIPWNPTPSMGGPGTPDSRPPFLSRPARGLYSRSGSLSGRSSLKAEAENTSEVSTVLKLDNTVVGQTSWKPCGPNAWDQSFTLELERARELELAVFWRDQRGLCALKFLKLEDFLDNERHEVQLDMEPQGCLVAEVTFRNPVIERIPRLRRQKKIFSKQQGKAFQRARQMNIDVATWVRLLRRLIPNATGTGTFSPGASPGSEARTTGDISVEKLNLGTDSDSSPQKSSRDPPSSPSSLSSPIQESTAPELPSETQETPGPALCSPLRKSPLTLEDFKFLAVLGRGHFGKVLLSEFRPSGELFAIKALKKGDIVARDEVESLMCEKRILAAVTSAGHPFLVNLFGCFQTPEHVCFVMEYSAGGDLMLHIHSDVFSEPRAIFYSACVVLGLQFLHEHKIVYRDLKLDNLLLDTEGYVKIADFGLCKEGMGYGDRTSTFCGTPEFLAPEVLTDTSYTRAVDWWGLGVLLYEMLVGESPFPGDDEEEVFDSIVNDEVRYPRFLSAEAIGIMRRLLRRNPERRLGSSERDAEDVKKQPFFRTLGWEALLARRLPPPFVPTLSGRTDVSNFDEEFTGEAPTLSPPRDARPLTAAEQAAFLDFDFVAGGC
Method in brief: as §1

PLK3 = PLK3 (Homo sapiens, UniProt Q9H4B4); conditions: competition binding, % of control; read-out: Percent Control (100 uM Levosimendan)
Method in brief: as §1

PRKCH = PRKCH (Homo sapiens, UniProt P24723); conditions: competition binding, % of control; read-out: Percent Control (100 uM Levosimendan)
Chain of PRKCH (P24723 whole entry): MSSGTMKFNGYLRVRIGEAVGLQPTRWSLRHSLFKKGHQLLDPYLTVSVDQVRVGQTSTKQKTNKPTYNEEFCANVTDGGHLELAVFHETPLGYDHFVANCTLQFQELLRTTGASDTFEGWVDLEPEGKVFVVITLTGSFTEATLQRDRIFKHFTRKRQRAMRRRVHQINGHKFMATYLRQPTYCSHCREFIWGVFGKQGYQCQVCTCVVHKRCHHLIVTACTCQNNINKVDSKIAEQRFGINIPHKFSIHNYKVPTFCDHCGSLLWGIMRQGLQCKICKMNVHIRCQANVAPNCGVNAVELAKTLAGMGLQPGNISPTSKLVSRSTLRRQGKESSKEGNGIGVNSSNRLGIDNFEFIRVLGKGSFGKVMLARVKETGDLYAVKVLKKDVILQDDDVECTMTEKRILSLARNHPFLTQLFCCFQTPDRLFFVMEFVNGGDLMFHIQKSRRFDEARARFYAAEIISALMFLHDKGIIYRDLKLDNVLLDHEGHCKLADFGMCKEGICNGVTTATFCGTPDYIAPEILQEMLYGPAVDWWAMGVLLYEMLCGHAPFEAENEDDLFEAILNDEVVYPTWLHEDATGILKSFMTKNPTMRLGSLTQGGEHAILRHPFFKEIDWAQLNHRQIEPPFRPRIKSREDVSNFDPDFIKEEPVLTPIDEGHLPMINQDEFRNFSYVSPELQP
Method in brief: as §1

RIPK4 = RIPK4 (Homo sapiens, UniProt P57078); conditions: competition binding, % of control; read-out: Percent Control (100 uM Levosimendan)
Chain of RIPK4 (P57078 whole entry): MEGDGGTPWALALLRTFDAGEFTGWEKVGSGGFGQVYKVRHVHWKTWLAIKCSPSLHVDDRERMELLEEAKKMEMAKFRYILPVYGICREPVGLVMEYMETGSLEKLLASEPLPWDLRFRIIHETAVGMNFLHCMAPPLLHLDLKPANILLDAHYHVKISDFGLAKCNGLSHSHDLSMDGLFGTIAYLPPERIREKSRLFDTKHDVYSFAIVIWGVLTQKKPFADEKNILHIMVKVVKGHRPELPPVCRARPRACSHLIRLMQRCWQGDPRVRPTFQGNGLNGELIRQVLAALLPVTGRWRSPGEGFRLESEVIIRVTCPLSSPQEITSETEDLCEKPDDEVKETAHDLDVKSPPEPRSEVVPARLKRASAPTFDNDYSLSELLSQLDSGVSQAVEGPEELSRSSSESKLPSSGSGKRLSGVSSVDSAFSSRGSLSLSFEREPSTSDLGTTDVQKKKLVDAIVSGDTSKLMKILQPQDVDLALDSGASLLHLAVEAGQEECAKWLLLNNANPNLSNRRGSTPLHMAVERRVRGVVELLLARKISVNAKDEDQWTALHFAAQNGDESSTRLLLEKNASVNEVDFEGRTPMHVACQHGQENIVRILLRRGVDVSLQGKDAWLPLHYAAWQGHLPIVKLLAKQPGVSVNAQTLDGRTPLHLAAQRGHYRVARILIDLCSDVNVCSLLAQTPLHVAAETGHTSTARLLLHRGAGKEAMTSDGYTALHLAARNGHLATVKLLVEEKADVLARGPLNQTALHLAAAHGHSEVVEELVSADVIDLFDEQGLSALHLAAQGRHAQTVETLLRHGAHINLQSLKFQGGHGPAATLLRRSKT
Method in brief: as §1

SIK = target: T5, SIK (Homo sapiens, UniProt P57059); conditions: competition binding, % of control; read-out: Percent Control (100 uM Levosimendan)
T5 construct: gene SIK1
Method in brief: as §1

TAOK1 = TAOK1 (Homo sapiens, UniProt Q7L7X3); conditions: competition binding, % of control; read-out: Percent Control (100 uM Levosimendan)
Chain of TAOK1 (Q7L7X3 whole entry): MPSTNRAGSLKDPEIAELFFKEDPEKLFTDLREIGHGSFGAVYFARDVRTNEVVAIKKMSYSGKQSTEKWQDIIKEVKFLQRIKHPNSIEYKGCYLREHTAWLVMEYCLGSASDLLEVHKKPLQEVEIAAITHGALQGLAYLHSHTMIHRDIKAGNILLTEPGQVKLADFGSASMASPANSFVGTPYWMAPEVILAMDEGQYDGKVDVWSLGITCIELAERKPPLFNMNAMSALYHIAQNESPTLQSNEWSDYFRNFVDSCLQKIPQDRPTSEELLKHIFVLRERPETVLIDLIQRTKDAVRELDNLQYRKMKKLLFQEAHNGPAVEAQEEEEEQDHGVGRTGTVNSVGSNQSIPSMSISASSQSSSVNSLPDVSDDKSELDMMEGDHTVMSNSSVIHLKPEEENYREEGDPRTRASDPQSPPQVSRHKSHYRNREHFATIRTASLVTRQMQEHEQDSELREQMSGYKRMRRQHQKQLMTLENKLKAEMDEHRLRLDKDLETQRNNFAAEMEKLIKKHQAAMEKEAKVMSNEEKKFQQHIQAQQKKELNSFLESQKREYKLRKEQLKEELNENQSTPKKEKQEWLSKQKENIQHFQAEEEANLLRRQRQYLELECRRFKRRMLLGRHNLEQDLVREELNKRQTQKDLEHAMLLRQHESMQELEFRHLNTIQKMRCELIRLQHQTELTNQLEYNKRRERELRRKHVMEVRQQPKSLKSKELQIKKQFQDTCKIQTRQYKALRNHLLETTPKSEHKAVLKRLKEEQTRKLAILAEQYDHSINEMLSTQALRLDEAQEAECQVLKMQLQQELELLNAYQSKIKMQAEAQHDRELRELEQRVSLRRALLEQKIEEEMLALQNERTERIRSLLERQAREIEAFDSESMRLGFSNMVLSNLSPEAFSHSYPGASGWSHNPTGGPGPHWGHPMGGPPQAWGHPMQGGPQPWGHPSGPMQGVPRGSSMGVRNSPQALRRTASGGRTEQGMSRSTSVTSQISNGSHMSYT
Method in brief: as §1

TLK2 = TLK2 (Homo sapiens, UniProt Q86UE8); conditions: competition binding, % of control; read-out: Percent Control (100 uM Levosimendan)
Chain of TLK2 (Q86UE8 whole entry): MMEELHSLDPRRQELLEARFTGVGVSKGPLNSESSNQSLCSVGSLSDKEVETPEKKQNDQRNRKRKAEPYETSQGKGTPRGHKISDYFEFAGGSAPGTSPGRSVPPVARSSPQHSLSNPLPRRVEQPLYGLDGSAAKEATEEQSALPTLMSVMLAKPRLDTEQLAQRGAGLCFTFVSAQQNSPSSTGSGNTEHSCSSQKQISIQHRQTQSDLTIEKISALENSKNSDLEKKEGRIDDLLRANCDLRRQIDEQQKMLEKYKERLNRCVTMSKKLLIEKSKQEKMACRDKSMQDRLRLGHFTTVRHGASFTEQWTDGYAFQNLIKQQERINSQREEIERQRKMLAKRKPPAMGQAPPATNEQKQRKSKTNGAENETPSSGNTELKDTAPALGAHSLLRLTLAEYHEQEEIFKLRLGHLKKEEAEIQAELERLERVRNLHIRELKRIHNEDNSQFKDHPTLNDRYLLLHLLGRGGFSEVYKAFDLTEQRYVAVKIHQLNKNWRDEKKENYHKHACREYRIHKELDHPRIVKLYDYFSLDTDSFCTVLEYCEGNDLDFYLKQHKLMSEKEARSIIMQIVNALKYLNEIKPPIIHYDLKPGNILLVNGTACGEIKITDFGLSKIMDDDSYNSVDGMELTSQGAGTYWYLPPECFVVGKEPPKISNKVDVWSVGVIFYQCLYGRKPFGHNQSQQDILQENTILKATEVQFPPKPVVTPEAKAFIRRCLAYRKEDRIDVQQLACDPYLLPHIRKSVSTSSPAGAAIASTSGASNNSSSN
Method in brief: as §1

TSSK3 = TSSK3 (Homo sapiens, UniProt Q96PN8); conditions: competition binding, % of control; read-out: Percent Control (100 uM Levosimendan)
Method in brief: as §1

[1] = read-out: Percent Control (10 uM Levosimendan)
[2] = read-out: Percent Control (100 uM Levosimendan)

remaining binding at 100 µM (BRAF): 81%
remaining binding at 10 µM (DRAK1; [1]): 87%
remaining binding at 100 µM (DRAK1; [2]): 22%
remaining binding at 100 µM (EPHB1): 96%
remaining binding at 100 µM (ERN1): 79%
remaining binding at 100 µM (IKK-epsilon): 93%
remaining binding at 100 µM (LATS2): 100%
remaining binding at 100 µM (MRCKA): 90%
remaining binding at 100 µM (NEK4): 100%
remaining binding at 100 µM (NEK7): 100%
remaining binding at 100 µM (PIM1): 64%
remaining binding at 10 µM (PIP5K2B; [1]): 92%
remaining binding at 100 µM (PIP5K2B; [2]): 14%
remaining binding at 100 µM (PKN1): 100%
remaining binding at 100 µM (PLK3): 97%
remaining binding at 100 µM (PRKCH): 69%
remaining binding at 100 µM (RIPK4): 99%
remaining binding at 100 µM (SIK): 59%
remaining binding at 100 µM (TAOK1): 100%
remaining binding at 100 µM (TLK2): 97%
remaining binding at 100 µM (TSSK3): 100%
Structure (SMILES): C[C@@H]1CC(=O)NN=C1c1ccc(NN=C(C#N)C#N)cc1 [levosimendan]
